Measurements published in PubChem BioAssay (NCI).
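1) Cells in 96-well plates. 2) Compound, 48 h, 5 concentrations. 3) Linear interpolation between surrounding doses. 4) Unreached endpoint = highest concentration. The concentration for 50% growth inhibition is given as GI50. The concentration for full growth arrest is given as TGI.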

Legend:
Assay in all cases: inhibition of tumour cell growth, NCI panel, 48 h
SK-MEL-2 melanoma = test system: SK-MEL-2 melanoma
HT29 colon = test system: HT29 colon
M14 melanoma = test system: M14 melanoma
K-562 leukemia = test system: K-562 leukemia
NCI/ADR-RES ovarian = test system: NCI/ADR-RES ovarian
DU-145 prostate = test system: DU-145 prostate
COLO 205 colon = test system: COLO 205 colon
HCT-116 colon = test system: HCT-116 colon
NCI-H522 lung = test system: NCI-H522 lung
BT-549 breast = test system: BT-549 breast
OVCAR-3 ovarian = test system: OVCAR-3 ovarian
SK-MEL-5 melanoma = test system: SK-MEL-5 melanoma
SW-620 colon = test system: SW-620 colon
NCI-H460 lung = test system: NCI-H460 lung
HOP-92 NSCLC = test system: HOP-92 NSCLC
SNB-19 CNS = test system: SNB-19 CNS
SF-268 CNS = test system: SF-268 CNS
TK-10 renal = test system: TK-10 renal
NCI-H226 lung = test system: NCI-H226 lung
CAKI-1 renal = test system: CAKI-1 renal
MDA-MB-231 breast = test system: MDA-MB-231 breast
PC-3 prostate = test system: PC-3 prostate
OVCAR-5 ovarian = test system: OVCAR-5 ovarian
RXF 393 renal = test system: RXF 393 renal
UO-31 renal = test system: UO-31 renal
SN12C renal = test system: SN12C renal
HOP-62 NSCLC = test system: HOP-62 NSCLC
T-47D breast = test system: T-47D breast
CCRF-CEM leukemia = test system: CCRF-CEM leukemia

## CC1(C)[C@@H](NOCCCN)CC[C@]2(C)[C@H]3C(=O)C=C4[C@@H]5C[C@](C)(C(=O)O)CC[C@]5(C)CC[C@@]4(C)[C@]3(C)CC[C@@H]12
SK-MEL-2 melanoma
  TGI: 26.6 µM
HT29 colon
  GI50: 3.45 µM
  TGI: 16.1 µM
M14 melanoma
  GI50: 8.46 µM
  TGI: 28.8 µM
K-562 leukemia
  GI50: 2.57 µM
  TGI: 12.1 µM
NCI/ADR-RES ovarian
  GI50: 10.6 µM
  TGI: 69.4 µM
DU-145 prostate
  GI50: 4.63 µM
  TGI: 15.4 µM
COLO 205 colon
  GI50: 2.41 µM
  TGI: 6.34 µM
HCT-116 colon
  GI50: 2.95 µM
  TGI: 11.5 µM
NCI-H522 lung
  GI50: 2.08 µM
  TGI: 4.85 µM
BT-549 breast
  GI50: 9.44 µM
  TGI: 47.8 µM
OVCAR-3 ovarian
  GI50: 4.17 µM
  TGI: 19.7 µM
SK-MEL-5 melanoma
  GI50: 3.17 µM
  TGI: 10.9 µM
SW-620 colon
  GI50: 3.41 µM
  TGI: 14 µM
NCI-H460 lung
  GI50: 8.29 µM
  TGI: 46 µM
HOP-92 NSCLC
  GI50: 2.38 µM
  TGI: 12.3 µM
SNB-19 CNS
  GI50: 13.5 µM
  TGI: 43.7 µM
SF-268 CNS
  GI50: 8.92 µM
  TGI: 21.6 µM
TK-10 renal
  GI50: 16.7 µM
  TGI: 36 µM
NCI-H226 lung
  GI50: 5.46 µM
  TGI: 19.2 µM
CAKI-1 renal
  GI50: 2.44 µM
  TGI: 6.26 µM
MDA-MB-231 breast
  GI50: 8.57 µM
  TGI: 22.1 µM
PC-3 prostate
  GI50: 3.66 µM
  TGI: 19 µM
OVCAR-5 ovarian
  GI50: 14.1 µM
  TGI: 28.1 µM
RXF 393 renal
  GI50: 2.3 µM
  TGI: 5.31 µM
UO-31 renal
  GI50: 7.44 µM
  TGI: 20.4 µM
SN12C renal
  GI50: 4.6 µM
  TGI: 19.5 µM
HOP-62 NSCLC
  GI50: 13.5 µM
  TGI: 48.4 µM
T-47D breast
  GI50: 3.42 µM
  TGI: 22.4 µM
CCRF-CEM leukemia
  GI50: 7.52 µM
  TGI: > 100 µM
